This experiment concerns the target F.Xa (factor Xa of bovine origin) (Bos taurus, UniProt P00743). Particulars: for conversion chart constant e (equation 2, anti-Xa activity % to ng/ml) / conversion chart constant i (equation 2, anti-Xa activity % to ng/ml): non-linear regression of equation 2. The source says:
The reagents from the commercial kit STA®—Liquid Anti-Xa (Diagnostica Stago, Asniéres sur Seine, France), F.Xa (factor Xa of bovine origin) and substrate (MAPA-Gly-Arg-pNA) were used. These commercial reagents and also the pool of normal human plasma Pool Norm (Diagnostica Stago, Asnieres sur Seine, France), the Owren Koller buffer (OKB) (pH 7.35, STA®—Owren-Koller, Diagnostica Stago, Asnieres sur Seine, France) and the desorption solution (DU) STA®—Desorb U (Diagnostica Stago, Asnieres sur Seine, France) were regenerated at room temperature for 30 minutes, as recommended by the manufacturer.
The kinetics were monitored by colorimetry at 405 nm, detecting the release of para-nitroanilide (pNA). The optical density (OD) was measured every two seconds. Two methodologies were optimized for assaying the three direct oral anti-Xa anticoagulants: the broad-range methodology and the narrow-range methodology. This is because the broad-range methodology makes it possible to assay the anticoagulants over the whole of the desired range; however, since the measurement of low concentrations of these anticoagulants requires great precision a narrow-range methodology was therefore developed.
In broad range, 6.25 μl of biological sample (plasma) were diluted with OKB in a final volume of 50 μl. The microcuvette was incubated for 240 seconds at 37° C. in the presence of 150 μl of substrate. The reaction was started by the addition of 150 μl of F.Xa, incubated beforehand at 37° C. In narrow range, 25 μl of sample were diluted with 25 μl of OKB. The experimental conditions for addition of substrate and enzyme are the same as for the broad-range methodology. The gradients were determined between 50 and 80 seconds.
The calibration was carried out from a range of F.Xa composed of 10 points ranging from 10% to 100% F.Xa, corresponding to an anti-Xa activity ranging from 90% to 0%. The range was created from reagents from the kit STA® Liquid Anti-Xa. The F.Xa (2 ml, 1.8 ml, . . . , 0.2 ml) was diluted in OKB (0 ml, 0.2 ml . . . 1.8 ml) for a final volume of 2 ml. The pool of healthy plasmas dated 04/2014 was used for this experiment. 5% DMSO was diluted to 1/20th in the plasma. The results (measurements of the OD/min between 50 and 80 seconds) were determined in two replicates.
The gradients of the kinetics measured for the 10 calibration points make it possible to plot the graph of anti-Xa activity (%) as a function of the OD/min. The equation of the line obtained is used to convert the OD/min of the samples tested into anti-Xa activity as percentage. The equation of the line is given by a polynomial regression of first order or of second order.
The parameters of the chart, specific to each direct oral anticoagulant (DOA), were determined for both of the methodologies (broad-range methodology and narrow-range methodology) by a non-linear regression of equation 2 on a few experimental points. […] The OD/min was measured for each sample between 50 and 80 seconds.
The limit of blank (LoB) was determined according to a standard procedure. The five different plasmas used were those dated January 2011, March 2012, April 2014, November 2014 and February 2015. Four replicates were carried out each day for three days, on the same automated device. The tests were carried out for the broad-range and narrow-range methodologies.
The limit of detection (LoD) was determined according to a standard procedure. Low-analyte plasmas were prepared. The overloads were carried out to 1/20th. The plasma dated 04/2014 was used. […] In narrow range, the concentrations of the overloads were 5 ng/ml for the three anticoagulants. Five overloads were produced for a final volume of 900 μl. When the regression of the universal calibration was a second-order polynomial, the concentrations of analytes in broad range and in narrow range were 2 ng/ml for the three direct oral anticoagulants (DOAs). The final volume of the overloads was 1000 μl. Each overload was separated into three tubes.

[1] abbreviates: broad-range methodology, plasma sample diluted 1/8 in OKB, linear universal calibration.
The mark [2] stands for this setting: narrow-range methodology, plasma sample diluted 1/2 in OKB, linear universal calibration.
Setting [3] is: optimization in narrow-range methodology, universal calibration regressed by second-order polynomial.

Experimental findings from US20190136292A1, “Universal Calibration Method for Assaying Enzymatic Inhibitors” (Diagnostica Stago, priority 2016, published 2019) are described below.

Several values for one entry are separate records, joined by “and”; a condition that tells them apart may be missing. Equal entries are not always repeated. Where two headings read alike, the source gives them in different places.

Sequence of F.Xa (factor Xa of bovine origin) (P00743 234-492 limits assumed): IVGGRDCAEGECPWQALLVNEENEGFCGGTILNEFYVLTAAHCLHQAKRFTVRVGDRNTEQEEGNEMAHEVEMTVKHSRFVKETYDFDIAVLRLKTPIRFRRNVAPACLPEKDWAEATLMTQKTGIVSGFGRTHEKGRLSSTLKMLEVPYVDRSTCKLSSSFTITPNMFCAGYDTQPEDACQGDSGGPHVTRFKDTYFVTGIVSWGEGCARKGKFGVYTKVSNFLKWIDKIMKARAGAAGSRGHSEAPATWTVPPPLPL
Sequence of F.Xa (factor Xa of bovine origin) (P00743 41-180 partner limits assumed): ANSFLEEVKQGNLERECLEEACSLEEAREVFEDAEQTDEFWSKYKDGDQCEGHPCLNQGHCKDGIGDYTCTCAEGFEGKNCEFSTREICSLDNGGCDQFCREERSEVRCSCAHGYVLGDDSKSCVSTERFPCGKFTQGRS

Turning to `COc1ccc(-n2nc(C(N)=O)c3c2C(=O)N(c2ccc(N4CCCCC4=O)cc2)CC3)cc1` [apixaban], the “conversion chart constant e (equation 2, anti-Xa activity % to ng/ml)” value (broad-range methodology) came out at 14.66 and the “conversion chart constant e (equation 2, anti-Xa activity % to ng/ml)” value (narrow-range methodology) is recorded as 13.23. Moreover, the “conversion chart constant i (equation 2, anti-Xa activity % to ng/ml)” value was 1.35 (broad-range methodology) and 2.91 (narrow-range methodology). For the same molecule, the “LoB (limit of blank)” value is, setting by setting: under setting [1], 16.613 ng/mL; under setting [2], 5.450 ng/mL; under setting [3], 2.759 ng/mL. In addition, the “LoD (limit of detection)” value is 21.8 ng/mL and 21.723 ng/mL under setting [1]; 6.9 ng/mL and 6.882 ng/mL under setting [2]; 4.001 ng/mL under setting [3].
